{"source": "paper PMC10703426", "about": "“New characterization of dihydroergotamine receptor pharmacology in the context of migraine: utilization of a β-arrestin recruitment assay” (Frontiers in Neurology, 2023)", "key": {"human 5-HT1B": {"system": "human 5-HT1B", "parameters": "method as in doi:10.1186/1129-2377-14-S1-P75", "details": "cited from earlier work"}, "[1]": {"details": "1 mg of IV DHE, cited from earlier work"}, "human 5-HT3 receptor": {"biological_target": "T1, human 5-HT3 receptor (Homo sapiens, UniProt P46098)", "T1 construct": "host or cells: HEK-293", "T1 sequence (P46098 24-478)": "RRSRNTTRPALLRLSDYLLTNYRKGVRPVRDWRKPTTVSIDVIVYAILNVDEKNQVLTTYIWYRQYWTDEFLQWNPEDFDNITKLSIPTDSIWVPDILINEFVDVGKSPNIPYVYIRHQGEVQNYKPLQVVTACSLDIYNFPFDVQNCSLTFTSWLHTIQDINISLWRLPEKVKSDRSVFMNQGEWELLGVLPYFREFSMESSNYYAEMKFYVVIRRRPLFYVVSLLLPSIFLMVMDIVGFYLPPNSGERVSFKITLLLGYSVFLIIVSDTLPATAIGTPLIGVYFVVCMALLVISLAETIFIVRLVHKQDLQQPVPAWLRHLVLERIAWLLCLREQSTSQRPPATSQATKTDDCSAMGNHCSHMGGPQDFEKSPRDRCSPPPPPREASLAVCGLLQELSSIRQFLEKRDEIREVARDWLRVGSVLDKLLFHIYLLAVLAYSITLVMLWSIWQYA", "assay": "Radioligand competition binding, [3H]GR-65630, HEK-293 cell membranes", "method": "Nonspecific binding was determined in the presence of 10 μM MDL 72222. Following incubation, the samples were filtered rapidly under vacuum through glass fiber filters (GF/B, Packard; Kennesaw, GA) presoaked with 0.3% polyethyleneimine and rinsed several times with ice-cold 50 mM Tris–HCl using a 96-sample cell harvester (UniFilter, Packard). The filters were dried and then counted for radioactivity in a scintillation counter (TopCount, Packard) using a scintillation cocktail (MicroScint 0, Packard). Results are expressed as percent inhibition of the control radioligand–specific binding. The standard reference compound was MDL 72222, which was tested in each experiment at several concentrations to obtain a competition curve from which its half-maximal inhibitory concentration (IC50) was calculated."}, "α-adrenergic2A [2]": {"system": "α-adrenergic2A", "details": "IV DHE (53 ng/mL); cited from earlier work"}, "5-HT1B [3]": {"system": "5-HT1B", "details": "IV DHE (53 ng/mL); cited from earlier work"}, "5-HT1B [4]": {"biological_target": "T2, 5-HT1B (Homo sapiens, UniProt P28222)", "T2 construct": "host or cells: Chem-1 cells", "T2 sequence (P28222 whole entry)": "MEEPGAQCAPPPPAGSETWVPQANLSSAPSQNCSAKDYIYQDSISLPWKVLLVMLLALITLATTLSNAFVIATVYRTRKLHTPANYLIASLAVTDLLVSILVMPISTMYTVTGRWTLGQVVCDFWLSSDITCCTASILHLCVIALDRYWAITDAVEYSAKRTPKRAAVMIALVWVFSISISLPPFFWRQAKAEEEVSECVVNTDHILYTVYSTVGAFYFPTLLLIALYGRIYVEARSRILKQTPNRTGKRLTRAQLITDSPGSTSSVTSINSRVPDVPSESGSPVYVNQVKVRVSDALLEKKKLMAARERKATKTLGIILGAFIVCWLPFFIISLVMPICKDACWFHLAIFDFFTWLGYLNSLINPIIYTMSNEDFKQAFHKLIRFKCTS", "assay": "Radioligand competition binding, [3H]GR125743, Chem-1 cells", "quoted_text": "All assays were performed in duplicate (ie, 2 replicates per assay, per standard manufacturer protocol)."}, "5-HT6": {"system": "5-HT6", "details": "IV DHE (53 ng/mL); cited from earlier work"}, "5-HT7": {"system": "5-HT7", "details": "IV DHE (53 ng/mL); cited from earlier work"}, "α-adrenergic1": {"system": "α-adrenergic1", "details": "IV DHE (53 ng/mL); cited from earlier work"}, "D1": {"biological_target": "T3, D1 (Homo sapiens, UniProt P21728)", "T3 construct": "ProLink enzyme-donor fragment of β-galactosidase (own knowledge of the PathHunter design)", "T3 sequence (P21728 whole entry, the tested form may be a part)": "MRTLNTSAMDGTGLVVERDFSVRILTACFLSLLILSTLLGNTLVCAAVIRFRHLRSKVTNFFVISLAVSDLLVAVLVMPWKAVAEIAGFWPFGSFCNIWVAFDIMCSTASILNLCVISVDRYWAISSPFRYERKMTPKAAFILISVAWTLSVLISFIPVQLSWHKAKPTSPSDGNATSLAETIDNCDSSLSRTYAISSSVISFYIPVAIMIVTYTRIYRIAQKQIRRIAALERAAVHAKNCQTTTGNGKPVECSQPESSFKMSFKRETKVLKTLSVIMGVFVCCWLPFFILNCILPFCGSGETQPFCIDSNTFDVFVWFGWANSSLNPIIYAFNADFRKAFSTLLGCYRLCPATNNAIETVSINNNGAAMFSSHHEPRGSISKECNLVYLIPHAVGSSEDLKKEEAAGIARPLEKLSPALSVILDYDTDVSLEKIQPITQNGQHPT", "assay": "gpcrMAX PathHunter β-arrestin recruitment, antagonist mode", "type": "cell-based", "method": "(§1) PathHunter cell lines were expanded from freezer stocks according to standard procedures and cells were seeded in a total volume of 20 μL into white-walled, 384-well microplates in duplicate and incubated at 37°C prior to testing. […] Intermediate dilution (1% vehicle concentration) of sample stocks was performed to generate a 5× sample in assay buffer, of which 5 μL was added to the cells and incubated for 90 or 180 min at 37°C or room temperature, depending on the specific receptor, as established by manufacturer optimization protocols (see Supplementary Table 1). For antagonist activity, cells were preincubated with an antagonist for 30 min, followed by an agonist challenge at 80% of the maximal effective concentration (EC80). Intermediate dilution of sample stocks was performed to generate 5× sample in assay buffer, of which 5 μL was added to cells and incubated at 37°C or room temperature for 30 min. This was followed by an addition of 5 μL of 6× EC80 agonist in assay buffer to the cells, which were incubated at 37°C or room temperature for 90 or 180 min. Assay signal for agonist and antagonist modes was generated through a single addition of 12.5 or 15 μL (50% v/v) of PathHunter Detection reagent cocktail, followed by a 1-h incubation at room temperature. Further experimental details can be found in the Supplementary File. Microplates were read with a PerkinElmer EnVision (Shelton, CT) instrument for chemiluminescent signal detection.\n(§2) Measurement of agonist and antagonist activity in the assay was calculated as percent activity of relative luminescence units (from positive control). Significance of agonist/antagonist activity was determined based upon prespecified criteria provided by Eurofins DiscoverX. In brief, receptor activity >30% was considered a significant agonist effect. Receptor inhibition >50% was considered a significant inhibitory effect. Please refer to the Supplementary File for more detail.\n(§3) Samples were added to cells and incubated for 90 or 180 minutes at 37 °C or room temperature, depending on the specific receptor, as noted, with specific incubation protocols outlined in Supplemental Table 1. For antagonist activity, preincubation temperatures were performed at the temperatures specified in Supplemental Table 1, per target. Incubation with 6× EC80 agonist was determined by the assay manufacturer and selected in order to provide a challenge that was low enough to be below the saturation point, so as to not bias the results, while still at a high enough challenge concentration to yield a robust signal-to-noise ratio. Further information is available from Eurofins Discovery Services upon request."}, "α-adrenergic2A [5]": {"biological_target": "T4, α-adrenergic2A (Homo sapiens, UniProt P08913)", "T4 construct": "ProLink enzyme-donor fragment of β-galactosidase (own knowledge of the PathHunter design)", "T4 sequence (P08913 whole entry, the tested form may be a part)": "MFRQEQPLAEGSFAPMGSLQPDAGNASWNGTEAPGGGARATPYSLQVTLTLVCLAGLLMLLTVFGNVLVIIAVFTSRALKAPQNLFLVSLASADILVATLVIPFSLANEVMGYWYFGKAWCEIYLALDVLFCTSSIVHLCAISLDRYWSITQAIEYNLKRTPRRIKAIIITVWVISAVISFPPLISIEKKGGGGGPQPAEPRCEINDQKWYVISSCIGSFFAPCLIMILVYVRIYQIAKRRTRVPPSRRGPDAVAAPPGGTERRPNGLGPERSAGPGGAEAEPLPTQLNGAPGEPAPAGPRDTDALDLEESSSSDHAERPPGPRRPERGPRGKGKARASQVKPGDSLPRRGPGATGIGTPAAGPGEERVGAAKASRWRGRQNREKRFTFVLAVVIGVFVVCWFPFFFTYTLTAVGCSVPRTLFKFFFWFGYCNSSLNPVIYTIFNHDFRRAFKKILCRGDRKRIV", "assay": "gpcrMAX PathHunter β-arrestin recruitment, antagonist mode", "type": "cell-based", "method": "as §1, §2, §3"}, "α-adrenergic2C": {"biological_target": "T5, α-adrenergic2C (Homo sapiens, UniProt P18825)", "T5 construct": "ProLink enzyme-donor fragment of β-galactosidase (own knowledge of the PathHunter design)", "T5 sequence (P18825 whole entry, the tested form may be a part)": "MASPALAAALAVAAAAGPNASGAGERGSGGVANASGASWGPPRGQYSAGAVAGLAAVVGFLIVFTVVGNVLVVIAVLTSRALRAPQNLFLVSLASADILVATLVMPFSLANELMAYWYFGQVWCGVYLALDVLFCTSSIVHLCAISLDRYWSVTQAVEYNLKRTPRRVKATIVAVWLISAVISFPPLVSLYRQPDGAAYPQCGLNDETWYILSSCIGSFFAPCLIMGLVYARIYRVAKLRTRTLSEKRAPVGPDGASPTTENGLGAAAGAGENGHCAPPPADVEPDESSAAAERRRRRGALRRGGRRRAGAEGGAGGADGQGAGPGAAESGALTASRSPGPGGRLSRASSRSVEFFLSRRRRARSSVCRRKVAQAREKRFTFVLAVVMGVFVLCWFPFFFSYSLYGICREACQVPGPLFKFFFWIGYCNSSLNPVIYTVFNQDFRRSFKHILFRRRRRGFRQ", "assay": "gpcrMAX PathHunter β-arrestin recruitment, antagonist mode", "type": "cell-based", "method": "as §1, §2, §3"}, "D4": {"biological_target": "T6, D4 (Homo sapiens, UniProt P21917)", "T6 construct": "ProLink enzyme-donor fragment of β-galactosidase (own knowledge of the PathHunter design)", "T6 sequence (P21917 whole entry, the tested form may be a part)": "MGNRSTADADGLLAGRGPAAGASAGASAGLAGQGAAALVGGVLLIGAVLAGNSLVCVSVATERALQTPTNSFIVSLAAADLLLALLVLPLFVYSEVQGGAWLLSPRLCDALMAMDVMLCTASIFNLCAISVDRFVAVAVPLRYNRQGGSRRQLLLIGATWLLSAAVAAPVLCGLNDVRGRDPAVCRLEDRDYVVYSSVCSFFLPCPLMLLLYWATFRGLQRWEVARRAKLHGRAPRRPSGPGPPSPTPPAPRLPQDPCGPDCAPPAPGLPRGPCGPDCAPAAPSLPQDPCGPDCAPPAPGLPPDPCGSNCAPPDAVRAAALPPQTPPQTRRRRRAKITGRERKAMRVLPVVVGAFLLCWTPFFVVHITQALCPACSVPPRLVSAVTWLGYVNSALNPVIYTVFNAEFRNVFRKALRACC", "assay": "gpcrMAX PathHunter β-arrestin recruitment, antagonist mode", "type": "cell-based", "method": "as §1, §2, §3"}, "D5": {"biological_target": "T7, D5 (Homo sapiens, UniProt P21918)", "T7 construct": "ProLink enzyme-donor fragment of β-galactosidase (own knowledge of the PathHunter design)", "T7 sequence (P21918 whole entry, the tested form may be a part)": "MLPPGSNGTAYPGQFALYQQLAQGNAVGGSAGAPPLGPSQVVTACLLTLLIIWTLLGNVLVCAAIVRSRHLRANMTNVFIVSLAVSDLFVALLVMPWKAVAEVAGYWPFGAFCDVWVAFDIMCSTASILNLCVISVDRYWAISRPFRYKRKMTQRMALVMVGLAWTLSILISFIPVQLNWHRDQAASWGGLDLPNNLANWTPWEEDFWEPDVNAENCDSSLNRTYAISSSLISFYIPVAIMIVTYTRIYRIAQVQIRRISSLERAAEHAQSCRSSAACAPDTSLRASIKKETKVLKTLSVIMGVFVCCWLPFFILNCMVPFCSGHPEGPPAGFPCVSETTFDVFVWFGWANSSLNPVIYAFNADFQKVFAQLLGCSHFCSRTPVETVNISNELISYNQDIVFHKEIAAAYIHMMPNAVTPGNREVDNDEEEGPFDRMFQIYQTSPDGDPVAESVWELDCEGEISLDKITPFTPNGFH", "assay": "gpcrMAX PathHunter β-arrestin recruitment, antagonist mode", "type": "cell-based", "method": "as §1, §2, §3"}, "D3": {"biological_target": "T8, D3 (Homo sapiens, UniProt P35462)", "T8 construct": "ProLink enzyme-donor fragment of β-galactosidase (own knowledge of the PathHunter design)", "T8 sequence (P35462 whole entry, the tested form may be a part)": "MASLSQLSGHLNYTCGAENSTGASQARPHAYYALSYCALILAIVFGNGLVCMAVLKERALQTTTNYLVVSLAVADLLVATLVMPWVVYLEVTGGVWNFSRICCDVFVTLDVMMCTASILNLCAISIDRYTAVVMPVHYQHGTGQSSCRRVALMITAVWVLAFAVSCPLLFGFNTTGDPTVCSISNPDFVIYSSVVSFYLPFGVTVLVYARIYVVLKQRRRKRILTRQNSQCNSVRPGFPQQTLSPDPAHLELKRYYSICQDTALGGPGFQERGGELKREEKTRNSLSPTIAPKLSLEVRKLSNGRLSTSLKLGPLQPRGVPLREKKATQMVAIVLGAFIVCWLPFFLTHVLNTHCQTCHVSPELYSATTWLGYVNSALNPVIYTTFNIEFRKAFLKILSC", "assay": "gpcrMAX PathHunter β-arrestin recruitment, antagonist mode", "type": "cell-based", "method": "as §1, §2, §3"}, "AMY2 (CTR-RAMP2)": {"biological_target": "T9, AMY2 (CTR-RAMP2) (Homo sapiens, UniProt O60895+P30988)", "T9 construct": "ProLink enzyme-donor fragment of β-galactosidase (own knowledge of the PathHunter design)", "T9 sequence (P30988 25-474)": "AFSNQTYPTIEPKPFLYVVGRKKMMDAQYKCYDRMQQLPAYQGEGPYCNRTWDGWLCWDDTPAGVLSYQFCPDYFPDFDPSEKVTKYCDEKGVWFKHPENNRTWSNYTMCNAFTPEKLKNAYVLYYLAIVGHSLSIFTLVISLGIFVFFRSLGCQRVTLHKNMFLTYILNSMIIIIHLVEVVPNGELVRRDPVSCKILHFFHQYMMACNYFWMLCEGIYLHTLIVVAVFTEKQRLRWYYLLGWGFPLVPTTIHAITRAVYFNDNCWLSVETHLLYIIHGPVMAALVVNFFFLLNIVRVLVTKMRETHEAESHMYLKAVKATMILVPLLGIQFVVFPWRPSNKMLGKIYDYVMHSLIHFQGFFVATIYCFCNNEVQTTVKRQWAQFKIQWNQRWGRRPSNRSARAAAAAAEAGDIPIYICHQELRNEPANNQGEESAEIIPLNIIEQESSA", "T9 sequence (O60895 43-175 partner)": "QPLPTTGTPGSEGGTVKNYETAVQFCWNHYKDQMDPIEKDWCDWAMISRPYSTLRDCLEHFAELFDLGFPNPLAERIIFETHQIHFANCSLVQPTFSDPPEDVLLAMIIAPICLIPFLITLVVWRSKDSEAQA", "assay": "gpcrMAX PathHunter β-arrestin recruitment, antagonist mode", "type": "cell-based", "method": "as §1, §2, §3"}, "α-adrenergic1B": {"biological_target": "T10, α-adrenergic1B (Homo sapiens, UniProt P35368)", "T10 construct": "ProLink enzyme-donor fragment of β-galactosidase (own knowledge of the PathHunter design)", "T10 sequence (P35368 whole entry, the tested form may be a part)": "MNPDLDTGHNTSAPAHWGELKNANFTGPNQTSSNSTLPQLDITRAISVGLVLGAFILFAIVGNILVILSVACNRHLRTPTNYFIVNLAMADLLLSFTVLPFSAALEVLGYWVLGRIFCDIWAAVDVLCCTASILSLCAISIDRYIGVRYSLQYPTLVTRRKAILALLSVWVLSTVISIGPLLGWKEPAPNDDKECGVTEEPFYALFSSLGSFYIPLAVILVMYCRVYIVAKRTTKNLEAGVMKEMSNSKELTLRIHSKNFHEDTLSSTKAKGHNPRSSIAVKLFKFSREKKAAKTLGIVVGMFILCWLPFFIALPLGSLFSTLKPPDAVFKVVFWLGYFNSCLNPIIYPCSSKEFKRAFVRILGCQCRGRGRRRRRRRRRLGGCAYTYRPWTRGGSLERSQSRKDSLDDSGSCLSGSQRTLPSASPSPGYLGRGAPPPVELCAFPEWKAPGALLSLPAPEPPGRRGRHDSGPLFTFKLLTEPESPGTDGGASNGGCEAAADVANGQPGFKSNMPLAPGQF", "assay": "gpcrMAX PathHunter β-arrestin recruitment, antagonist mode", "type": "cell-based", "method": "as §1, §2, §3"}, "[6]": {"details": "10 μM, >50% inhibition = antagonist"}, "[7]": {"details": "agonist control Dopamine at EC80"}, "[8]": {"details": "agonist control UK 14,304 at EC80"}}, "note": "Entries after “also recorded” stand apart in the source; their conditions may differ. Counter-ions that a name gives are not always drawn.", "data": [{"smiles": "CN1C[C@H](C(=O)N[C@]2(C)O[C@@]3(O)[C@@H]4CCCN4C(=O)[C@H](Cc4ccccc4)N3C2=O)C[C@@H]2c3cccc4[nH]cc(c34)C[C@H]21", "note": "[DHE, Dihydroergotamine mesylate]", "values": [{"measurement": "dissociation half-life", "setting": "human 5-HT1B", "value": 1.38, "unit": "h"}, {"measurement": "maximum plasma concentration (Cmax)", "setting": "[1]", "value": 53, "unit": "ng/mL"}, {"measurement": "Cmax", "setting": "[1]; read-out: maximum plasma concentration (Cmax)", "value": "~91", "unit": "nM"}, {"measurement": "IC50", "setting": "human 5-HT3 receptor", "value": "> 300", "unit": "nM"}, {"measurement": "binding to the 5-HT3 receptor", "setting": "human 5-HT3 receptor; at concentrations up to 300 nM", "value": "did not bind; also recorded: did not exhibit binding"}, {"measurement": "receptor radioligand binding (active binding)", "setting": "α-adrenergic2A [2]", "value": "X (An X denotes active binding)"}, {"measurement": "receptor radioligand binding (active binding)", "setting": "5-HT1B [3]", "value": "X (An X denotes active binding)"}, {"measurement": "IC50", "setting": "5-HT1B [4]", "value": 0.58, "unit": "nM"}, {"measurement": "receptor radioligand binding (active binding)", "setting": "5-HT6", "value": "X (An X denotes active binding)"}, {"measurement": "receptor radioligand binding (active binding)", "setting": "5-HT7", "value": "X (An X denotes active binding)"}, {"measurement": "receptor radioligand binding (active binding)", "setting": "α-adrenergic1", "value": "X (An X denotes active binding)"}, {"measurement": "DHE activity (screening)", "setting": "D1; [6]", "value": "Antagonist"}, {"measurement": "inhibition at 10 µM", "setting": "D1; [7]", "value": 71, "unit": "%"}, {"measurement": "DHE activity (screening)", "setting": "α-adrenergic2A [5]; [6]", "value": "Antagonist"}, {"measurement": "inhibition at 10 µM", "setting": "α-adrenergic2A [5]; [8]", "value": 115, "unit": "%"}, {"measurement": "DHE activity (screening)", "setting": "α-adrenergic2C; [6]", "value": "Antagonist"}, {"measurement": "inhibition at 10 µM", "setting": "α-adrenergic2C; [8]", "value": 124, "unit": "%"}, {"measurement": "DHE activity (screening)", "setting": "D4; [6]", "value": "Antagonist"}, {"measurement": "inhibition at 10 µM", "setting": "D4; [7]", "value": 83, "unit": "%"}, {"measurement": "DHE activity (screening)", "setting": "D5; [6]", "value": "Antagonist"}, {"measurement": "inhibition at 10 µM", "setting": "D5; [7]", "value": 54, "unit": "%"}, {"measurement": "DHE activity (screening)", "setting": "D3; [6]", "value": "Antagonist"}, {"measurement": "inhibition at 10 µM", "setting": "D3; [7]", "value": 91, "unit": "%"}, {"measurement": "inhibition at 10 µM", "setting": "AMY2 (CTR-RAMP2)", "value": 57, "unit": "%"}, {"measurement": "DHE activity (screening)", "setting": "AMY2 (CTR-RAMP2); [6]", "value": "Antagonist"}, {"measurement": "DHE activity (screening)", "setting": "α-adrenergic1B; [6]", "value": "Antagonist"}, {"measurement": "inhibition at 10 µM", "setting": "α-adrenergic1B; agonist control Phenylephrine at EC80", "value": 95, "unit": "%"}]}]}
